Data reported in the supplement of paper PMC9938120.

How the values were obtained:
Assay in all cases: drug sensitivity score (DSS3, normalised partial AUC of % inhibition dose-response) (DSS (score)); higher = more sensitive (stronger inhibition of viability); extreme values may be limits of the assay
FMOC25_1 = patient-derived low-grade serous ovarian cancer cells; conditions: 72 h; library: FO4B; assay format: 2D, 384-well, CellTiter-Glo
Method in brief: (§1)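 On 384-well flat clear-bottom plates carrying compounds at five concentrations across a 10,000-fold range, patient-derived ovarian cancer cells below passage 10 were incubated for 72 h at 37 °C with 5% CO2. CellTiter-Glo readout of viability was processed in Breeze. A higher drug sensitivity score, defined as the partial area under the percent-inhibition dose-response curve divided by the log of the upper asymptote, means greater sensitivity.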

FMOC02_2 = patient-derived low-grade serous ovarian cancer cells; conditions: 72 h; library: FO5A; assay format: 2D, 384-well, CellTiter-Glo
Method in brief: as §1

FMOC09 = patient-derived high-grade serous ovarian cancer cells; conditions: 72 h; library: FO5A; assay format: 2D, 384-well, CellTiter-Glo
Method in brief: as §1

FMOC25_2 = patient-derived low-grade serous ovarian cancer cells; conditions: 72 h; library: FO5A; assay format: 2D, 384-well, CellTiter-Glo
Method in brief: as §1

FMOC22 = patient-derived mucinous ovarian cancer cells; conditions: 72 h; library: FO5A; assay format: 2D, 384-well, CellTiter-Glo
Method in brief: as §1

FMOC06 = patient-derived mucinous ovarian cancer cells; conditions: 72 h; library: FO5A; assay format: 2D, 384-well, CellTiter-Glo
Method in brief: as §1

FMOC14 = patient-derived high-grade serous ovarian cancer cells; conditions: 72 h; library: FO5A; assay format: 2D, 384-well, CellTiter-Glo
Method in brief: as §1

FMOC02_3 = patient-derived low-grade serous ovarian cancer cells; conditions: 72 h; library: FO5A; assay format: 2D, 384-well, CellTiter-Glo
Method in brief: as §1

FMOC03 = patient-derived mucinous ovarian cancer cells; conditions: 72 h; library: FO5A; assay format: 2D, 384-well, CellTiter-Glo
Method in brief: as §1

FMOC24 = patient-derived high-grade serous ovarian cancer cells; conditions: 72 h; library: FO5A; assay format: 2D, 384-well, CellTiter-Glo
Method in brief: as §1

Oc1ncc(N(CCCl)CCCl)c(O)n1 [Uramustine]
drug sensitivity score (FMOC25_1): 0.1

O=C(O)c1ccc(Nc2ncc3c(n2)-c2ccc(Cl)cc2C(c2c(F)cccc2F)=NC3)cc1 [MLN-8054]
drug sensitivity score (FMOC25_1): 0

COc1ccc(Cl)c(Nc2nc3ccccc3nc2NS(=O)(=O)c2cccc(NC(=O)C(C)(C)N)c2)c1 [Pilaralisib]
drug sensitivity score (FMOC25_1): 2.2

COc1ccc(-c2cc3c(C)nc(N)nc3n([C@H]3CC[C@H](OCCO)CC3)c2=O)cn1
drug sensitivity score (FMOC25_1): 23.8

O=C(c1ccc(/C=C/c2n[nH]c3ccccc23)cc1)N1CCNCC1 [KW-2449]
drug sensitivity score (FMOC25_1): 0

c1ccc([C@H]2CN3CCSC3=N2)cc1 [Levamisole]
drug sensitivity score (FMOC25_1): 0

CCNC(=O)C[C@@H]1N=C(c2ccc(Cl)cc2)c2cc(OC)ccc2-n2c(C)nnc21
drug sensitivity score (FMOC25_1): 3.8

O=C(O)CCCc1ccc(N(CCCl)CCCl)cc1 [Chlorambucil]
drug sensitivity score (FMOC25_1): 0

Cc1c(CN2CCN(C(=O)[C@H](C)O)CC2)sc2c(N3CCOCC3)nc(-c3cnc(N)nc3)nc12 [Apitolisib]
drug sensitivity score (FMOC25_1): 18.1

CC(C)Oc1cc(Nc2nc(N[C@@H](C)c3ccc(F)cn3)ncc2Cl)n[nH]1 [AZ-23]
drug sensitivity score (FMOC25_1): 0

CS(=O)(=O)N1CCc2c(-c3cnc(N)nc3)nc(N3CCOCC3)nc21
drug sensitivity score (FMOC25_1): 10.5

Cc1cc(C(=O)NOCCO)c(Nc2ccc(I)cc2F)n(C)c1=O [AZD-8330]
drug sensitivity score (FMOC25_1): 22.2

O=S(=O)(c1cccc2cnccc12)N1CCCNCC1 [Fasudil]
drug sensitivity score (FMOC25_1): 0

Oc1c2ccccc2c2c3c(cccc13)N=N2
drug sensitivity score (FMOC25_1): 4.3

O=C(Nc1cccc(Cl)c1)Nc1ncc(CCNc2ncnc3ccsc23)s1 [SNS-314]
drug sensitivity score (FMOC25_1): 0.4

CCOc1cc2ncc(C#N)c(Nc3ccc(F)c(Cl)c3)c2cc1NC(=O)/C=C/CN(C)C [Pelitinib]
drug sensitivity score (FMOC25_1): 13.1

CO[C@H]1/C=C\C=C(/C)C(=O)NC2=CC(=O)C(NCCN(C)C)=C(C[C@@H](C)C[C@H](OC)[C@H](O)[C@@H](C)/C=C(\C)[C@@H]1OC(N)=O)C2=O [Alvespimycin]
drug sensitivity score (FMOC25_1): 4.1

CS(=O)(=O)c1ccc(C2=C(c3ccccc3)C(=O)OC2)cc1 [Rofecoxib]
drug sensitivity score (FMOC25_1): 0

Cn1cc(-c2ccc3nnc(Sc4ccc5ncccc5c4)n3n2)cn1 [SGX-523]
drug sensitivity score (FMOC25_1): 0

COc1cc(F)c(F)c(Nc2ccc(I)cc2F)c1NS(=O)(=O)C1(C[C@H](O)CO)CC1 [Refametinib]
drug sensitivity score (FMOC25_1): 14.8

CN(N=O)C(=O)N[C@@H](C=O)[C@@H](O)[C@H](O)[C@H](O)CO [Streptozocin]
drug sensitivity score (FMOC25_1): 0

S=P(N1CC1)(N1CC1)N1CC1 [Thio-TEPA]
drug sensitivity score (FMOC25_1): 0.7

O=P1(NCCCl)OCCCN1CCCl (stereo unspecified) [Ifosfamide]
drug sensitivity score (FMOC25_1): 0

N[C@@H](Cc1ccc(N(CCCl)CCCl)cc1)C(=O)O [Melphalan]
drug sensitivity score (FMOC25_1): 0

COc1ccc2c(OCc3nnc4ccc(-c5ccccc5)nn34)ccnc2c1 [AMG-208]
drug sensitivity score (FMOC25_1): 1.3

NC(=O)Nc1sc(-c2ccc(F)cc2)cc1C(N)=O [TPCA-1]
drug sensitivity score (FMOC25_1): 2.9

CN(C[C@@H]1COCCO1)S(=O)(=O)Nc1ccc2ccc3ncc(-c4cnn(C)c4)cc3c(=O)c2c1 [MK-2461]
drug sensitivity score (FMOC25_1): 2.8

O=C(O)CSc1cc(NS(=O)(=O)c2ccc(Br)cc2)c2ccccc2c1O [UMI-77]
drug sensitivity score (FMOC25_1): 14.3

O=NN(CCCl)C(=O)NCCCl [Carmustine]
drug sensitivity score (FMOC25_1): 0.4

Cc1nc(C(=O)NCC(=O)O)c(O)c2ccc(Oc3ccccc3)cc12 [FG-4592]
drug sensitivity score (FMOC25_1): 0

CNNCc1ccc(C(=O)NC(C)C)cc1 [Procarbazine]
drug sensitivity score (FMOC25_1): 0

C[C@@H]1C[C@H]2O[C@@H]2/C=C\C=C\C(=O)Cc2c(Cl)c(O)cc(O)c2C(=O)O1 [Radicicol]
drug sensitivity score (FMOC25_1): 3.2

CNC(=O)c1cc(Oc2ccc(NC(=O)Nc3cc(C(C)(C)C)nn3-c3ccc4ncccc4c3)c(F)c2)ccn1 [Rebastinib]
drug sensitivity score (FMOC25_1): 0

CNC(=O)c1ccc(N2C(=S)N(c3cnc(C#N)c(C(F)(F)F)c3)C(=O)C23CCC3)cc1F [ARN 509]
drug sensitivity score (FMOC25_1): 0

C#Cc1cccc(Nc2ncnc3cc(OC)c(OCCCCCCC(=O)NO)cc23)c1 [CUDC-101]
drug sensitivity score (FMOC25_1): 17

O=C(Nc1ccc(-c2ccnc(Nc3ccc(N4CCOCC4)cc3)n2)cc1)C1CCCN1 (stereo unspecified) [XL019]
drug sensitivity score (FMOC25_1): 0.5

CN1CCC(COc2cnc(-c3cccc(Cn4nc(-c5cccc(C#N)c5)ccc4=O)c3)nc2)CC1
drug sensitivity score (FMOC25_1): 0

O=C(NC[C@H](O)CO)c1ccncc1Nc1ccc(I)cc1F [Pimasertib]
drug sensitivity score (FMOC25_1): 14.7

CCN1CCN(c2ccc(Nc3cc(N(C)C(=O)Nc4c(Cl)c(OC)cc(OC)c4Cl)ncn3)cc2)CC1 [NVP-BGJ398]
drug sensitivity score (FMOC25_1): 0

O=NN(CCCl)C(=O)NC1CCCCC1 [Lomustine]
drug sensitivity score (FMOC25_1): 0

N#Cc1c(Oc2ccc(F)c(NC(=O)Cc3cccc(C(F)(F)F)c3)c2)ccc2nc(NC(=O)C3CC3)sc12 [TAK-632]
drug sensitivity score (FMOC25_1): 4.4

Cc1c(NC(=O)OC[C@@H]2COCCN2)cn2ncnc(Nc3ccc4c(cnn4Cc4cccc(F)c4)c3)c12
drug sensitivity score (FMOC25_1): 9.1

CCc1cc(Nc2nccc(-c3c(-c4ccc(OC)c(C(=O)Nc5c(F)cccc5F)c4)nc4ccccn34)n2)c(OC)cc1N1CCC(N2CCN(S(C)(=O)=O)CC2)CC1
drug sensitivity score (FMOC25_1): 3.9

CN(C)CCN1C(=O)c2cccc3cc(N)cc(c23)C1=O [Amonafide]
drug sensitivity score (FMOC25_1): 6.8

C=CCNC1=C2C[C@@H](C)C[C@H](OC)[C@H](O)[C@@H](C)/C=C(\C)[C@H](OC(N)=O)[C@@H](OC)/C=C\C=C(/C)C(=O)NC(=CC1=O)C2=O [Tanespimycin]
drug sensitivity score (FMOC25_1): 14.6

CN(c1ccccc1CNc1nc(Nc2ccc3c(c2)CC(=O)N3)ncc1C(F)(F)F)S(C)(=O)=O
drug sensitivity score (FMOC25_1): 7

Cn1c(CCCC(=O)O)nc2cc(N(CCCl)CCCl)ccc21 [Bendamustine]
drug sensitivity score (FMOC25_1): 0

Cn1cc(-c2ccc3nnc(C(F)(F)c4ccc5ncccc5c4)n3n2)cn1
drug sensitivity score (FMOC25_1): 0

CCN1CCN(Cc2ccc(-c3cc4c(N[C@H](C)c5ccccc5)ncnc4[nH]3)cc2)CC1 [NVP-AEE788]
drug sensitivity score (FMOC25_1): 6

Cn1c(Nc2ccc(C(F)(F)F)cc2)nc2cc(Oc3ccnc(-c4ncc(C(F)(F)F)[nH]4)c3)ccc21 [RAF265]
drug sensitivity score (FMOC25_1): 8.1

CS(=O)(=O)OCCCCOS(C)(=O)=O [Busulfan]
drug sensitivity score (FMOC25_1): 0

CCc1nc(-c2cccc(C)c2)c(-c2ccnc(NC(=O)c3ccccc3)c2)s1 [TAK-715]
drug sensitivity score (FMOC25_1): 0

CCOc1ccccc1-n1c(C(C)N2CCN(C(=O)COc3ccc(Cl)cc3)CC2)nc2ccccc2c1=O (stereo unspecified) [Erastin]
drug sensitivity score (FMOC02_2): 0.3
drug sensitivity score (FMOC09): 2.2
drug sensitivity score (FMOC25_2): 4.7
drug sensitivity score (FMOC22): 0.2
drug sensitivity score (FMOC06): 8
drug sensitivity score (FMOC14): 14.6
drug sensitivity score (FMOC02_3): 3.9
drug sensitivity score (FMOC03): 6.1
drug sensitivity score (FMOC24): 0.1
